Experimental data from patent US12024543B2, “Micropeptides and use of same for modulating gene expression” (UNIVERSITE PAUL SABATIER TOULOUSE III, priority 2013, dated 2024).

Tests used:
AtmiR164a = experiment: Northern blot of miR164a in A. thaliana roots treated with synthetic AtmiPEP164a; format: in vivo, Arabidopsis thaliana; conditions: 0.1 μM synthetic miPEP164a in water vs water
Protocol: Northern blot analysis was carried out according to the protocol described in Lauressergues et al. Plant J, 72(3): 512-22, 2012.
The biological samples were homogenized in a buffer containing 0.1 M of NaCl, 2% of SDS, 50 mM of Tris-HCl (pH 9), 10 mM of EDTA (pH 8) and 20 mM of mercaptoethanol, and the RNA was extracted twice with a phenol/chloroform mixture and was precipitated with ethanol.
The RNA was loaded on PAGE 15% gel and transferred to a nylon membrane (HybondNX, Amersham). RNA was hybridized with a radioactive oligonucleotide probe labelled at its end, in order to detect the RNA U6 or for miR164a.
The hybridizations were carried out at 55° C. The hybridization signals were quantified using a phosphorimager (Fuji) and normalized with the signal of the specific probe of RNA U6.

Arabidopsis thaliana = experiment: Growth of Arabidopsis thaliana plants watered with synthetic miPEP; format: in vivo; conditions: A. thaliana; watered with 0.1 μM synthetic peptide, 3 weeks of growth, vs water
Protocol: The photographs show two plants (top views and side views) after 3 weeks of growth: a control plant watered with water (A), and a plant watered with a composition of 0.1 μM of synthetic peptide corresponding to AtmiPEP164a (B).
The photographs show two plants (top views and side views) after 3 weeks of growth: a control plant watered with water (A), and a plant watered with a composition of 0.1 μM of synthetic peptide corresponding to AtmiPEP319a1 (B).

AtmiR319a = experiment: Expression of AtmiPEP319a2 (AtmiORF319a) in tobacco expressing AtmiR319a; format: in vivo, Nicotiana benthamiana; conditions: overexpression of AtmiORF319a
Protocol: At present, AtmiPEP165a and AtmiPEP319a2, identified in Arabidopsis thaliana, have already been characterized.
(§1) The total RNA was extracted from roots of M. truncatula or from tobacco leaves using the extraction kit RNeasy Plant Mini Kit (Qiagen). The reverse transcription was performed using the reverse transcriptase SuperScript II (Invitrogen) starting from 500 ng of total RNA. Three repetitions (n=3) were carried out, each with two technical repetitions. Each experiment was repeated from two to three times. The amplifications by qPCR were carried out using a LightCycler 480 System thermocycler (Roche Diagnostics) by the method described in Lauressergues et al. (Plant J., 72(3): 512-22, 2012).
For the miPEPs 165a and 319a, the corresponding miORFs were cloned into pBIN19 by the method described in Combier et al. (Genes & Dev, 22: 1549-1559, 2008).
(§2) The composite plants having roots transformed with Agrobacterium rhizogenes were obtained by the method described in Boisson-Dernier et al. (Mol Plant-Microbe Interact, 18: 1269-1276, 2005). The transformed roots were verified and selected by observations of DsRED with a binocular fluorescence magnifier. The control roots correspond to roots transformed with A. rhizogenes not containing the pPEX-DsRED vector. Transformation of the tobacco leaves was carried out by the method described in Combier et al. (Genes & Dev, 22: 1549-1559, 2008).

MtmiR171b [1] = experiment: Watering of M. truncatula plants with synthetic MtmiPEP171b1, relative expression by qRT-PCR; format: in vivo, Medicago truncatula; conditions: watering once daily for 5 days with MtmiPEP171b1 at 0.01, 0.1 or 1 μM
Protocol: The surface of seeds of M. truncatula was sterilized and they were left to germinate on agar plates for 5 days at 4° C. in the dark. The young shoots were then grown on 12-cm square plates filled with Fahraeus medium without nitrogen and containing 7.5 μM phosphate (Lauressergues et al., Plant J., 72(3): 512-22, 2012). The lateral roots were counted every day. In pots, the plants were watered every other day with modified Long Ashton medium with low phosphorus content (Balzergue et al., Journal of Experimental Botany, (62)1049-1060, 2011).
The peptides were synthesized by Eurogentec or Smartox-Biotech. MtmiPEP171b1 was resuspended in a solution of 40% water/50% acetonitrile/10% acetic acid (v/v/v), and the other peptides were resuspended in water.
The RNA was extracted using the reagent Tri-Reagent (MRC) according to the manufacturer's instructions, except for precipitation of the RNA, which was carried out with 3 volumes of ethanol. The reverse transcription of the RNA was carried out using the specific stem-loop primer RTprimer171b in combination with hexamers for performing the reverse transcription of RNA of high molecular weight.
In brief, 1 μg of RNA was added to the stem-loop primer MIR171b (0.2 μM), the hexamer (500 ng), the buffer RT (1×), the enzyme SuperScript Reverse transcriptase (SSIII) (one unit), the dNTPs (0.2 mM each), DTT (0.8 mM) in a final reaction mixture of 25 μl. In order to carry out the reverse transcription, a reaction of pulsed reverse transcription was performed (40 repetitions of the following cycle: 16° C. for 2 minutes, 42° C. for one minute and 50° C. for one second, followed by a final inactivation of the reverse transcription at 85° C. for 5 minutes).
as §1
The mean values of the relative expression of the genes or of the production of lateral roots were analysed using the Student test or the Kruskal-Wallis test. The error bars represent the SEM (Standard Error of the Mean). The asterisks indicate a significant difference (p<0.05).

Medicago truncatula = experiment: Number of lateral roots in M. truncatula; format: in vivo; conditions: vs control plant
Protocol: The surface of seeds of M. truncatula was sterilized and they were left to germinate on agar plates for 5 days at 4° C. in the dark. […] The lateral roots were counted every day. […] The mean values of the relative expression of the genes or of the production of lateral roots were analysed using the Student test or the Kruskal-Wallis test. The error bars represent the SEM (Standard Error of the Mean). The asterisks indicate a significant difference (p<0.05).

MtmiR171b [2] = experiment: Overexpression of MtmiPEP171b1 (MtmiORF171b) in M. truncatula roots, relative expression by qRT-PCR; format: in vivo, Medicago truncatula; conditions: vs control plant
Protocol: as §1
(§3) The DNA fragments of interest were amplified with Pfu polymerase (Promega). The DNA fragments were cloned using the XhoI and NotI enzymes into a pPEX-DsRED plasmid for an overexpression under the control of the constitutive strong promoter 35S, and using the KpnI-NcoI enzymes into a pPEX GUS plasmid for the reporter genes, by the method described in Combier et al. (Genes & Dev, 22: 1549-1559, 2008).
as §2

[3] = test system: pre-MtmiR169, pre-MtmiR169a, pre-MtmiR171a, pre-MtmiR171h, pre-MtmiR393a, pre-MtmiR393b, pre-MtmiR396a, pre-MtmiR396b; experiment: Specificity of miPEP171b1: expression of different microRNA precursors of M. truncatula; format: in vivo, Medicago truncatula; conditions: overexpression of MtmiPEP171b1 or treatment with MtmiPEP171b1 (0.1 μM), ratio to control roots
Protocol: The expression of different microRNA precursors of Medicago truncatula (MtmiR171b SEQ ID NO: 319, MtmiR169 SEQ ID NO: 367, MtmiR169a SEQ ID NO: 368, MtmiR171a SEQ ID NO: 369, MtmiR171h SEQ ID NO: 370, MtmiR393a SEQ ID NO: 371, MtmiR393b SEQ ID NO: 372, MtmiR396a SEQ ID NO: 373 and MtmiR396b SEQ ID NO: 374) was determined and compared between control plants and plants in which MtmiORF171b encoding MtmiPEP171b1 was overexpressed (FIG. 5A), or between control plants and plants grown on culture medium containing MtmiPEP171b1 (FIG. 5B).
as §1

MtmiR171b [4] = experiment: Regulation of MtmiR171b by MtmiPEP171b1 in transformed tobacco leaves; format: in vivo, Nicotiana benthamiana; conditions: for relative expression of pre-MtmiR171b (expression of MtmiR171b): co-expression of MtmiPEP171b1 (MtmiORF171b ATG vs ATT), FIG. 7
Protocol: In order to determine whether the mechanism of regulation of the microRNAs is conserved in other plant species, the regulation of MtmiR171b by MtmiPEP171b1 was tested in a different cellular model. For this, MtmiR171b and MtmiPEP171b1 were introduced into tobacco leaves.
The accumulation of MtmiR171b was measured in tobacco leaves transformed in order to express MtmiR171b of Medicago truncatula starting from wild-type pri-miRNA capable of producing MtmiPEP171b1, or starting from a mutated version of pri-miRNA incapable of producing MtmiPEP171b1 (in which the start codon ATG of MtmiORF171b has been replaced with ATT) (FIG. 6 and FIG. 20).
The accumulation of pre-MtmiR171b was measured in tobacco leaves transformed in order to express MtmiR171b of Medicago truncatula alone (control), or additionally expressing the wild-type MtmiORF171b of Medicago truncatula (35SmiPEP171b1 ATG), or a mutated version of MtmiORF171b in which the start codon ATG has been replaced with ATT (35SmiPEP171b1 ATT) (FIG. 7 and FIG. 21).
The leaves were watered by spraying with the peptides using peptide solutions at different concentrations (0.01, 0.1, 1 μM), firstly 12h before sampling and then a second time 30 min before sampling.
as §1, §3, §2

DmmiR8 = experiment: Transfected Drosophila melanogaster S2 cells, relative expression of Pre-miR8; format: cell-based
Protocol: S2 cells are cultured in a T75 flask in 12 mL of Schneider's medium (GIBCO), containing 1% of penicillin 100 U/mL and […] (Sigma) and 10% of decomplemented foetal calf serum (30 min at 56° C.). The transient transfections are carried out using the FuGENE® HD transfection kit (Roche), according to the recommendations. Conventionally, 1.5 million S2 cells, previously seeded in 6-well plates (3 ml of medium per well), are transfected with 250 ng of total plasmid DNA. The DNA is brought into contact with the Fugene (3 μl) in 100 μl of OPTIMEM (GIBCO). After 20 minutes, the transfection reagent formed is brought into contact with the cells in the culture medium. The RNA of the cells is extracted 66 h after transfection.

[5] = overexpression of MtmiPEP171b1 (MtmiORF171b)
[6] = tobacco expressing MtmiR171b, overexpression of MtmiPEP171b1 or 0.1 μM miPEP171b1, FIG. 9

MPSWHGMVLLPYVKHTHASTHTHTHNIYGCACELVFH (listed as Arabidopsis thaliana) [AtmiPEP164a1]
accumulation of miR164a (Northern blot) (AtmiR164a): increase | plant growth (Arabidopsis thaliana): increases plant growth significantly

MFQTLYLFIYIHTNILLLS (listed as Arabidopsis thaliana) [AtmiPEP319a2]
accumulation of AtmiR319a (AtmiR319a): increase

MLLHRLSKFCKIERDIVYIS (listed as Medicago truncatula) [MtmiPEP171b1]
accumulation of MtmiR171b (MtmiR171b [1]; vs control plant): increase | expression of the HAM1 gene (MtmiR171b [1]; vs control plant): decrease | expression of the HAM2 gene (MtmiR171b [1]; vs control plant): decrease | accumulation of pre-MtmiR171b (MtmiR171b [1]; vs control plants): increase | number of lateral roots (Medicago truncatula; [5]): reduction | number of lateral roots (Medicago truncatula; watering with MtmiPEP171b1 at 0.1 μM once daily for 5 days): reduction | accumulation of MtmiR171b (MtmiR171b [2]): increase | expression of the HAM1 gene (MtmiR171b [2]): decrease | expression of the HAM2 gene (MtmiR171b [2]): decrease | effect on the accumulation of the other miRNAs (precursors of MtmiR169, 169a, 171a, 171h, 393a, 393b, 396a, 396b) [3]: not on the other miRNAs | relative expression of pre-MtmiR171b (expression of MtmiR171b) (MtmiR171b [4]; tobacco expressing MtmiR171b): increases | accumulation of MtmiR171b (MtmiR171b [4]; tobacco expressing MtmiR171b, MtmiPEP171b1 sprayed (0.1 μM) twice, 12 h and 30 min before sampling): increase | accumulation of MtmiR171b (MtmiR171b [4]; [6]): increase | accumulation of pre-MtmiR171b (MtmiR171b [4]; [6]): increase | expression of MtmiR171b (pre-MtmiR171b) with MtmiPEP171b1 with or without protein tags (MtmiR171b [4]; tobacco leaves, tags His, HA or GFP): increases the expression of MtmiR171b, and this effect is independent of the presence of tags | relative expression of MtmiR171b (MtmiR171b [4]; tobacco, vector expressing mtmiPEP171b vs empty vector, ATT mutant or degenerate ORF, FIG. 21): increases | accumulation of MtmiR171b in the absence of translation of MtmiPEP171b1 (MtmiR171b [4]; tobacco, pri-MtmiR171b with ATG of miORF171b replaced with ATT (or miORF deleted) vs wild-type pri-MtmiR171b): marked decrease

B1: ATGCTTCTTCATAGGCTCTCCAAATTTTGCAAAATTGAAAGAGACATAGTATATATATCTTAG (nucleic acid, listed as Medicago truncatula)
DNA: ATGCTTCTTCATAGGCTCTCCAAATTTTGCAAAATTGAAAGAGACATAGTATATATATCTTAG
modifications: listed as DNA, chemistry not fully specified
number of lateral roots (Medicago truncatula; [5]): reduction | accumulation of MtmiR171b (MtmiR171b [2]): increase | expression of the HAM1 gene (MtmiR171b [2]): reduction | expression of the HAM2 gene (MtmiR171b [2]): reduction | relative expression of pre-MtmiR171b (expression of MtmiR171b) (MtmiR171b [4]; tobacco expressing MtmiR171b): increase

B2: MEPGFVFVLFPTHLSTQHTQREKSILVMGLNLQSAKQSDKQNSKERKKNTQINSQRIPYRQGGQCSKVLSP (peptide)
chain: MEPGFVFVLFPTHLSTQHTQREKSILVMGLNLQSAKQSDKQNSKERKKNTQINSQRIPYRQGGQCSKVLSP
modifications: Drosophila melanogaster
expression of DmmiR8 (relative expression of Pre-miR8) (DmmiR8; D. melanogaster cells overexpressing DmmiPEP8 vs miPEP8 with mutated start codons): increases | expression of DmmiR8 (relative expression of Pre-miR8) (DmmiR8; D. melanogaster cells overexpressing wild-type DmmiR8 vs DmmiR8 with mutated miPEP8 start codons): increases
